Assay: Study 1: cloxacillin in milk after intramammary infusion of Injector 1A
Assay type: in vivo, cows
Settings: single dose, micronised form in an aqueous base
Procedure: A number of studies have been conducted in cows to establish the following : - Study 1: Bioavailability of cloxacillin in bovine colostrum following intramammary infusion of Injector 1A. Study 2: Irritancy of aqueous cloxacillin in the bovine mammary gland.
As a secondary objective plasma levels of Cloxacillin were also measured, in order to assess the extent of systemic absorption.
Eight animals were infused with Injector 1A in all four quarters, and samples of milk were taken at the following intervals post infusion : 0.5, 1, 2, 3, 4, 6, 8, 12, 24, 32, 48, 72, 96, 120 and 144 hours.
Quarter results were recorded for all animals (it was not possible to get samples from two of the quarters due to problems associated with hand milking of animals normally used to being machine milked). […] A peak mean value of 5233.4 mg/L was found at the first sampling interval (0.5 hr) with an approximately exponential decline being noted over the next 72 hours.

Which results are given for `Cc1onc(-c2ccccc2Cl)c1C(=O)N[C@@H]1C(=O)N2[C@@H]1SC(C)(C)[C@@H]2C(=O)O` [cloxacillin benzathine]?
Tmax (bovine, milk, read-out: time to high initial peak of antibiotic): ≤ 30 min; duration of therapeutic levels: up to 72 hours

Reference: patent publication EP0673239B1, “AQUEOUS ANTIBIOTIC COMPOSITION FOR VETERINARY USE” (priority 1992, dated 1994)
